Tested on: capsaicin-induced visceral pain
Assay: Action on capsaicin-induced visceral pain model
Type: in vivo, male ddY mice
Conditions: doses of 3 and 30 mg/kg p.o. 30 minutes before 0.1% capsaicin into the colon; mice, n=10; 60 minutes
Experimental: It has been reported that a visceral pain is induced by the administration of capsaicin into the colon [Pain, Vol. 92, No. 3, pp. 335-342 (2001)].
A suspension of Compound 1-1 was prepared with an agate mortar using 0.5 w/v % MC.
Capsaicin (Sigma-Aldrich) was dissolved in a physiological saline solution containing 10% ethanol (Kanto Chemical co., Ltd.) and 10% polyoxyethylene (20) sorbitan monooleate (Tween 80, Wako Pure Chemical Industries, Ltd.), and the resultant solution was used. A test compound was orally administered in a volume of 10 mL/kg, and MC was administered to a control group in the same volume.
Male ddY mice (Japan SLC, Inc.) with a body weight of 27 g to 29 g were purchased and used in an experiment. After inspection and acclimation for 2 days or more, the mice showing favorable increases in body weight and no obvious abnormality were used. […]
After the oral administration of Compound 1-1 or 0.5 w/v % MC, each mouse was housed in a cage and left therein. […] Then, each of the mice was placed in an acrylic cage (8 cm in length×8 cm in width×15 cm in height) and recorded with a video (Sony) for 1 hour. After the recording, the following 4 behaviors and symptoms were measured as indexes of capsaicin-induced visceral pain at an interval of 5 minutes. […]

SMILES: C[C@](O)(C(=O)Nc1cccc2c1C(=O)c1sccc1CS2(=O)=O)C(F)(F)F [Compound 1-1]
- numbers of pain-related behaviors: suppressed the pain-related behaviors

From patent US20100267796A1, “THERAPEUTIC AGENT FOR IRRITABLE BOWEL SYNDROME” (KYOWA HAKKO KOGYO CO., LTD., priority 2006, published 2010)
